Measurements as given in publication PMC10082729, “First study on in vitro antiviral and virucidal effects of flavonoids against feline infectious peritonitis virus at the early stage of infection” (Veterinary World, 2023).
Where two headings read alike, the source gives them in different places.

How the values were obtained:
Duck hepatitis A virus = tested on: Duck hepatitis A virus; design: method as in PMID 27927057; conditions: in vitro, at 20 µg/mL; cited from earlier work
Influenza A virus = conditions: in vitro; cited from earlier work
[1] = tested on: Respiratory syncytial virus; conditions: cited from earlier work
SARS-CoV-2 RdRp = conditions: in vitro; cited from earlier work
in vitro = conditions: cat, CC50
FIPV = test: Post-viral entry assay, FIPV-infected cells by IPMA; conditions: Alphacoronavirus 1, CRFK

| SMILES | CC50 (CRFK cells) [µM] | inhibition (Duck hepatitis A virus) | CC10 (CRFK cells; cat, 24 h) [µM] | CC50 (CRFK cells; cat, 24 h) [µM] | EC50 (Influenza A virus) [µM] | antiviral activity (in vitro concentration) [1] [µM] | IC50 (SARS-CoV-2 RdRp) [µM] | CC50 at 24 h (in vitro) [µM] | EC50 (FIPV) [µM] | EC90 (FIPV) [µM] |
| --- | --- | --- | --- | --- | --- | --- | --- | --- | --- | --- |
| COc1ccc(-c2cc(=O)c3c(O)cc(O[C@@H]4O[C@H](CO[C@@H]5O[C@@H](C)[C@H](O)[C@@H](O)[C@H]5O)[C@@H](O)[C@H](O)[C@H]4O)cc3o2)cc1 [Linarin] | > 200 | Duck hepatitis A virus (in vitro: 69.3% inhibition at 20 µg/mL) |  |  |  |  |  |  |  |  |
| O=c1cc(-c2ccc(O)c(O)c2)oc2cc(O)cc(O)c12 [Luteolin] |  |  | 136.80 ± 2.37 | 248 ± 3.4 | 6.89 to 7.15 | 2.08 to 24.71 | 4.6 | > 200 | 36.28 ± 0.03 | 66 ± 1.82 |
